Key:
[1] = test system: W174A mutant of HP1αCSD; experiment: 1H,15N HSQC NMR titration of W174A HP1αCSD with KAP1Hbox; format: binding, human; settings: 15N-labeled W174A HP1αCSD, 20 mM Tris pH 6.8, 150 mM NaCl, 2 mM DTT, 298 K
Procedure: (§1) Human full-length HP1α and HP1αCSD (aa 109–185 of HP1α) were cloned into a pGEX4T-1 expression vector and expressed in E. coli BL21 Rosetta (DE3) pLysS cells grown in Luria Broth or M9 minimal media supplemented with ^15NH4Cl (Sigma-Aldrich). Following induction with 0.5 mM isopropyl β-D-1-thiogalactopyranoside (IPTG) for 20 h at 16 °C, cells were harvested by centrifugation and lysed by sonication. GST-tag fusion proteins were purified on glutathione agarose 4B beads (Thermo Fisher Sci) in 50 mM Tris-HCl (pH 7.5) buffer, supplemented with 500 mM NaCl and 5 mM β-mercaptoethanol. The GST tag was cleaved with TEV (Tobacco Etch Virus) protease overnight at 4 °C. Proteins were further purified by size exclusion chromatography (SEC) and concentrated in Millipore concentrators. Mutants were generated by site-directed mutagenesis using the Stratagene QuikChange mutagenesis protocol and were purified as wild-type proteins.
(§2) NMR data were processed and analyzed with NMRPipe[54] and NMRDraw as described. Normalized chemical shift perturbations shown in Fig. 3b were calculated using the equation:2 Δδ=ΔδH^2+ΔδN/5^2 where Δδ is the change in chemical shift in parts per million (ppm).

[2] = test system: I165E mutant of HP1αCSD; experiment: 1H,15N HSQC NMR titration of I165E HP1αCSD with KAP1Hbox; format: binding, human; settings: 15N-labeled I165E HP1αCSD, 20 mM Tris pH 6.8, 150 mM NaCl, 2 mM DTT, 298 K
Procedure: as §1, §2

[3] = test system: L139E/L150E HP1αCSD; experiment: 1H,15N HSQC NMR titration of L139E/L150E HP1αCSD with KAP1Hbox; format: binding, human; settings: 15N-labeled L139E/L150E HP1αCSD, 20 mM Tris pH 6.8, 150 mM NaCl, 2 mM DTT, 298 K
Procedure: as §1, §2

[4] = test system: 147 bp Widom 601 DNA (DNA147); experiment: EMSA; format: binding; settings: for DNA binding of protein or peptide itself: 0.25 pmol/lane DNA147, 25 mM Tris-HCl pH 7.5, 150 mM NaCl, peptides without HP1α
Procedure: as §1
The protein was expressed in E. coli BL21(DE3) RIL competent cells in Luria Broth, induced with 0.5 mM IPTG and grown for 20 h at 16 °C. The cells were harvested by centrifugation and lysed by sonication. […] The protein was eluted in 50 mM Tris-HCl (pH 7.5) buffer supplemented with 500 mM NaCl, 500 mM imidazole and 5 mM DTT. The protein was further purified by size exclusion chromatography using a HiLoad16/600 Superdex 75 column (Cytiva) and buffer containing 50 mM Tris-HCl (pH 7.5), 500 mM NaCl and 5 mM DTT. The eluted protein fractions were analyzed by SDS-PAGE. The fractions were pooled, concentrated and exchanged with buffer containing […] pH 7.5, 150 mM NaCl and 2.5 mM DTT. The His-SUMO tag was cleaved overnight at 4 °C with Ulp1 enzyme and the tag was removed using Ni-NTA beads. The purified KAP1Hbox’ was concentrated in Millipore concentrators.
The buffer containing 25 mM Tris-HCl pH 7.5, 150 mM NaCl and 2.5 mM DTT was used to make up the final reaction volume of 10 µL. The samples were incubated for 1 h on ice and then loaded on a 8% native PAGE gel and run for 2 h at 80 V in 0.5× Tris-borate-EDTA (TBE) on ice. The gels were stained with SYBR Gold (Thermo Fisher Sci) and visualized by Blue LED (UltraThin LED Illuminator-GelCompany).
Tryptophan fluorescence data are presented as average of three independent measurements ±SD. […] EMSA experiments in Fig. 4 and Supplementary Figs. 6 and 7 were performed at least twice.

[5] = test system: FL HP1α; experiment: mass photometry with KAP1Hbox (Fig. 5j); design: species or system human; settings: 2:1 molar ratio HP1α:KAP1Hbox
Procedure: as §1
(§3) Mass photometry (MP) assays shown in Fig. 5c, j, were performed on a Refeyn Two^MP mass photometer (Refeyn Ltd, Oxford, UK) to determine oligomeric states of FL and L139E/L150E HP1α. Each sample was loaded into the sample wells of the silicon cassettes assembled onto MassGlass UC coverslips (Refeyn, Ltd.). Samples for measurements were prepared by rapid in-drop dilution and measurements were performed at room temperature in buffer (50 mM Tris pH 7.5, 150 mM NaCl, 5 mM DTT). […]

[6] = test system: L139E/L150E FL HP1α; experiment: mass photometry with KAP1Hbox (Fig. 5j); design: species or system human; settings: 2:1 molar ratio HP1α:KAP1Hbox
Procedure: as §1, §3

[7] = test system: HP1αCSD’; experiment: NMR chemical shift perturbation of 15N-labeled HP1αCSD’; format: binding, human; settings: 50 μM 15N-labeled HP1αCSD’ with 1 mM unlabeled HP1αCSD’ or 900 μM unlabeled HP1αCD; 1H,15N HSQC
Procedure: NMR experiments for amide chemical shift assignments were collected at 310 K on an Avance Neo Bruker 800 MHz spectrometer equipped with a TXO cryo-probe optimized for ^15N detection. The HP1αCSD’ construct (aa 112–176 of HP1α) and the CD of HP1α (aa 18–75 of HP1α, HP1αCD) were purified as described. Experiments were performed in buffer containing 20 mM HEPES (90% H2O/10% D2O), pH 7.2, 75 mM KCl, 1 mM TCEP, and 0.01% NaN3. Chemical shift assignments were performed on a 400 μM uniformly ^13C/^15N-labeled HP1αCSD’ sample using standard 2D ^1H,^15N HSQC, 3D HNCACB and 3D CBCA(CO)NH experiments[56]–[58]. Data were processed with NMRPipe[54] and analyzed in NMRFAM-SPARKY[59] (Sparky). […]
Fig. 10, ^1H,^15N HSQC spectra were recorded on 50 μM ^15N-labeled HP1αCSD’ samples with and without 1 mM unlabeled HP1αCSD’ or with and without 900 μM unlabeled HP1αCD. The resonance perturbation analysis was performed using the […][60],[61] as follows:3 Δδcombined=∣ΔδH∣+α∣ΔδN∣ The ∆δcombined is the sum of the absolute chemical shift change. ∆δH is the change in the ^1H chemical shift. ∆δN is the change in the ^15N chemical shift. α (0.105) is the scaling factor calculated by using the ratio between the backbone ^1H chemical shift range and ^15N chemical shift range from the ^1H,^15N HSQC spectrum.

[8] = test system: endogenous KAP1 from HCT116 cells; experiment: pull-down with Strep-tagged HP1α, Western blot; format: binding; settings: Strep-tagged full-length HP1α, 3 biological replicates
Procedure: For all AP experiments, HCT116 cells were seeded in 10 cm plates (~4 million cells per dish) and transfected with Strep- and Flag-tagged plasmids one-day after seeding cells. Two days post-transfection, cells were collected in PBS and lysed with passive lysis buffer (PLB: 50 mM Tris-HCl pH 7.5, 150 mM NaCl, 1 mM DTT, 1.0% NP-40, 1.5 mM MgCl2, 5% v/v glycerol, and 1X complete, Mini EDTA-free, EASYpack Protease Inhibitor [Roche, Cat# 4693159001]) by resuspending cells in PLB, vortexing briefly, nutating for 15 min at 4 °C, and centrifuging the lysate (10,000 × g, 10 min, 4 °C). Strep-Tactin superflow resin (IBA Life Sciences, Cat# 2-1208-010), was equilibrated by centrifuging beads (2000 RPM, 2 min, 4 °C), removing storage buffer, and washing three times with PLB with nutation for 5 min at 4 °C. Beads were volumed back to their original volume, and 40 µL beads were used per AP and bound for 2 h. Beads were then washed with AP Wash Buffer (50 mM Tris-HCl pH 7.5, 250 mM NaCl, 1 mM DTT, 0.2% NP-40, 1.5 mM MgCl2, and 5% v/v glycerol), and eluted with Strep-tag Elution Buffer containing D-Desthiobiotin (IBA Life Sciences, Cat# 2-1000-025).
All western blots were run on 10-12% SDS-PAGE gels and transferred on nitrocellulose membranes (Bio-Rad, Cat# 1620115) using the Bio-Rad Trans-Blot Turbo Transfer System, blocked for 1 h in 5% Milk (or BSA) with Tris-buffered saline-Tween-20 (TBST), probed with primary antibody in 5% Milk (or BSA) with TBST. Blots were exposed using either Clarity Western ECL (Bio-Rad, Cat# 1705060) or utilizing the starbright secondary channel. KAP1 and CBX5/HP1a mutants for Western blot assays were generated using QuikChange II XL Site-Directed Mutagenesis kit (Agilent, Cat# 200522) per manufacturer’s instructions. PCR amplified DNAs were transformed into E. coli BME treated XL-10 Gold provided in the kit and positive clones validated by Sanger Sequencing. […]
Tryptophan fluorescence data are presented as average of three independent measurements ±SD. […]

[9] = test system: I165E HP1αCSD; experiment: NMR titration of 15N-labeled I165E HP1αCSD with unlabeled HP1αCSD; format: binding, human
Procedure: as §1, §2

[10] = molecular target: T1, HP1αCSD (Homo sapiens, UniProt P45973); experiment: 1H,15N HSQC NMR titration of 15N-labeled HP1αCSD with KAP1Hbox; format: binding; settings: 0.1–0.2 mM 15N-labeled protein, 20 mM Tris pH 6.8, 150 mM NaCl, 2 mM DTT, 10% D2O, 298 K
T1 construct: HP1αCSD (aa 109–185 of HP1α); GST (N, cleaved yes); made in house; host or cells: E. coli BL21 Rosetta (DE3) pLysS
T1 sequence (P45973 109-185): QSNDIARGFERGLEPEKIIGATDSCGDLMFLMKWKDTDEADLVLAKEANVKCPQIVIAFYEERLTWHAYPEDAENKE
Description: NMR data were processed and analyzed with NMRPipe[54] and NMRDraw as described[55].

Molecule: CC(C)C[C@H](NC(=O)[C@H](CCCNC(=N)N)NC(=O)[C@H](CCC(=O)O)NC(=O)[C@H](CC(C)C)NC(=O)[C@H](CO)NC(=O)[C@@H](NC(=O)[C@H](CCCNC(=N)N)NC(=O)[C@@H]1CCCN1C(=O)[C@@H](NC(=O)[C@H](CCCCN)NC(=O)[C@@H](N)CCCNC(=N)N)C(C)C)C(C)C)C(=O)O [KAP1Hbox]
- binding by CSPs in HSQC [1]: no CSP were observed
- binding by CSPs in HSQC [2]: disrupted
- binding by CSPs in HSQC [3]: does not disrupt the CSD-KAP1Hbox complex formation
- DNA binding of protein or peptide itself ([4]; 2.5 mM DTT, 1 h on ice): did not appreciably bind DNA
- effect of peptide on binding of HP1α to DNA147 ([4]; FL HP1α, tenfold molar excess of peptide, 25 mM Tris-HCl pH 7.5, 150 mM NaCl, 2.5 mM DTT, 1 h on ice, 8% native PAGE): augmented binding of HP1α to DNA
- effect on oligomerization of WT FL HP1α [5]: further increased oligomerization of WT FL HP1α
- KAP1Hbox-promoted oligomerization of L139E/L150E FL HP1α [6]: markedly decreased

Molecule: CD domain: CD of HP1α (aa 18–75 of HP1α)
- resonance perturbations in HP1αCSD’ [7]: does not induce such changes

Molecule: FL HP1α: Human full-length HP1α
- DNA binding of protein or peptide itself ([4]; 2.5 mM DTT, 1 h on ice): forms a complex with DNA147
- pull-down of endogenous KAP1 [8]: immunoprecipitated

Molecule: HP1αCSD: aa 109–185 of HP1α, chromoshadow domain
- shift of DNA band by HP1αCSD in presence or absence of KAP1Hbox ([4]; isolated HP1αCSD, with and without KAP1Hbox (1:10)): unable to shift the DNA band
- CSPs in I165E HP1αCSD [9]: led to CSPs
- resonance perturbations in HP1αCSD’ [7]: resonance perturbations observed

Molecule: I165E HP1α: I165E mutant of full-length HP1α (dimerization interface), Strep-tagged
- pull-down of endogenous KAP1 [8]: not

Molecule: V488E mutant of KAP1Hbox: V488E mutant of KAP1Hbox peptide (RKVPRESLERL)
- binding by CSPs in HSQC [10]: no CSP were observed

Molecule: W174A HP1α: W174A mutant of full-length HP1α, Strep-tagged
- pull-down of endogenous KAP1 [8]: not

Source: PMC12126490, “The HP1 box of KAP1 organizes HP1α for silencing of endogenous retroviral elements in embryonic stem cells” (Nature Communications, 2025)
